Reference: paper PMC9321663, “The DevTox Germ Layer Reporter Platform: An Assay Adaptation of the Human Pluripotent Stem Cell Test” (Toxics, 2022)
Where two headings read alike, the source gives them in different places.

What was measured:
[1] = system: SOX17 (endoderm marker) in RUES2-GLR cells; experiment: DevTox GLR-Endo assay: decrease in percent SOX17-positive cells (AEID 3094, Sox17_dn); details: for Emax / AC50: Homo sapiens; for DevTox-GLR Endo ACC: activity concentration at cutoff, SOX17-positive cells
Experimental: (§1) The total test chemical incubation period was 48 h.
(§2) Assay plate controls included non-differentiated pluripotent cells maintained in complete Essential 8 Flex medium (baseline control), endoderm differentiated cells (differentiation control), endoderm differentiated cells treated with DMSO (0.2%) (solvent control), and TGF-ß receptor inhibitor SB431542 (1 µM)-treated cells (developmental toxicant-positive control) (Figure S3). All experiments were completed with a minimum of four biological replicates (n = 4).
(§3) (Supplementary Materials).

RUES2-GLR cells = experiment: DevTox GLR-Endo assay: decrease in total cell count, cytotoxicity (AEID 3098, CellCount_dn); details: for Emax: Homo sapiens, read-out: Cell Count % Max Inhibition
Experimental: as §1, §2, §3

[2] = system: SOX17 (endoderm marker) in RUES2-GLR cells; experiment: DevTox GLR-Endo assay: increase in percent SOX17-positive cells (AEID 3093, Sox17_up); format: cell-based, human; details: for Emax: Homo sapiens
Experimental: as §1, §3

[3] = system: BRA (mesoderm marker) in RUES2-GLR cells; experiment: DevTox GLR-Endo assay: increase in percent BRA-positive cells (AEID 3096, Bra_up); format: cell-based, human; design: tp (winning model): unit not given here; details: for ga (winning model): tcpl plot AEID3096, gain parameter of winning curve fit (log concentration, µM axis); for ga (winning model) / tp (winning model): hit calls only; for tp (winning model): tcpl plot AEID3096, top of winning curve fit
Experimental: as §1, §3

[4] = cited from earlier work; for Classification: developmental toxicant classification (Teratogen / Non-Teratogen) of reference and training chemicals, ref DOI per chemical: 10.1093/toxsci/kft239, 10.1093/toxsci/kfaa014, 10.1177/026119290203000204, 10.1038/s41598-020-59542-x; for DT Class.: developmental toxicant classification, chemicals common with quickPredict; for Development Toxicant Classification: Table S2
[5] = system: SOX2 (ectoderm and pluripotency marker) in RUES2-GLR cells; experiment: DevTox GLR-Endo assay: increase in percent SOX2-positive cells (AEID 3095, Sox2_up); details: for AC50 / Emax: Homo sapiens; for AC50: read-out: ga (winning model); for Emax: read-out: tp (winning model);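 for all read-outs here: cells exposed to test chemicals for 48 h in total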
[6] = DevTox GLR-Endo prediction against developmental toxicant classification
[7] = read-out: DevTox % Max Inhibition
[8] = read-out: maximum observed effect level class (% max inhibition)
[9] = Table S2, SOX17-positive cells, cutoff 3*bmad
[10] = Table S2, percent SOX17-positive cells, 48 h exposure
[11] = tcpl plot AEID3093, maximum mean response, read-out: MAX_MEAN
[12] = tcpl plot AEID3093, maximum median response, read-out: MAX_MED
[13] = tcpl plot AEID3096, maximum mean response
[14] = tcpl plot AEID3096, maximum median response
[15] = tcpl plot AEID3095, maximum mean response
[16] = tcpl plot AEID3095, maximum median response
[17] = Table S2, percent SOX17-positive cells relative to DMSO
[18] = tcpl plot AEID3094, maximum mean response
[19] = tcpl plot AEID3094, maximum median response
[20] = Table S2, cell count relative to DMSO
[21] = tcpl plot AEID3093, maximum mean response
[22] = tcpl plot AEID3093, maximum median response
[23] = read-out: ga (winning model), tcpl plot AEID3094, gain parameter of winning curve fit (log concentration, µM axis), hit calls only (converted)

Cell Count ACC (RUES2-GLR cells; human, 48 h) [µM]	Compound	Emax [1, 7] [%]	Emax ([1]; read-out: MAX_MEAN) [%]	Emax ([1]; read-out: MAX_MED) [%]	Hit Call [1, 9]	DevTox ACC [1, 10] [µM]	HIT−CALL ([1]; tcpl plot AEID3094, COFF 20.3)	Emax (RUES2-GLR cells) [%]	Emax [2, 11] [%]	Emax [2, 12] [%]	HIT−CALL ([2]; tcpl plot AEID3093, COFF 20.3)	HIT−CALL ([3]; tcpl plot AEID3096, COFF 0.774)	MAX_MEAN [3, 13] [Percent Activity]	MAX_MED [3, 14] [Percent Activity]	Classification [4]	MAX_MEAN [5, 15] [Percent Activity]	MAX_MED [5, 16] [Percent Activity]	Emax ([1]; read-out: tp (winning model)) [%]	other results
>200	CCCc1cc(=O)[nH]c(=S)[nH]1	16.6	14.7	16.6	Negative	>200	0	12.9	7.44	8.97	0	1	0.944	0.969	Teratogen	0.595	0.601		hit call designation (in words) [1, 6]: false negative; Emax [1, 8]: 0 to 20%; DT Class. [4]: Pos
>200	CC(=O)Nc1ccc(O)cc1 [Acetaminophen]	10.5	11.3	10.5	Negative	>200	0	13.1	11.3	10.3	0	0	0.829	0.865		0.992	0.603		effect on SOX17-positive cells (in words) ([1]; 48 h exposure during directed endoderm differentiation): no observed effect
	C=CC(N)=O [Acrylamide]				Negative	>200	0				0	1	1.03	1.06		0.47	0.417		DevTox % Max Inhibition [1, 17]: 9.423%; MAX_MEAN [1, 18]: 8.79 Percent Activity; MAX_MED [1, 19]: 9.42 Percent Activity; Cell Count % Max Inhibition (RUES2-GLR cells; [20]): 16.9643%; MAX_MEAN [2, 21]: 6.64 Percent Activity; MAX_MED [2, 22]: 7.31 Percent Activity; ga (winning model) [3]: −6.98; tp (winning model) [3]: 0.908
	CCCCOC(=O)c1ccc(O)cc1 [Butylparaben, 4−Hydroxybenzoic acid butyl ester]	102	101	102	Positive	34.4685	1	91.8	8.67	10.2	0				Non-Teratogen	4.14	4.42	102	hit call designation (in words) [1, 6]: false positive; AC50 ([1]; read-out: ga (winning model)): 50.1 µM; Emax [1, 8]: 80 to 100%; DevTox-GLR Endo ACC ([1]; 48 h exposure): 34.47 µM; Development Toxicant Classification [4]: Negative; DT Class. [4]: Neg; AC50 [5]: 115 µM; Emax [5]: 6.25%
	Oc1cc(O)c2c(c1)OC(c1ccc(O)c(O)c1)C(O)C2 (stereo not drawn) [Cianidanol (Catechin)]														Non-Teratogen				
	COC(=O)c1ccccc1C(=O)OC [Dimethyl Phthalate]	6.7	7.41	6.7	Negative	>200	0	11.9	6.35	7.43	0	0	0.821	0.835		1.15	0.556		Cell Count ACC (RUES2-GLR cells; Table S2, 48 h exposure): >200 µM; HIT−CALL [5]: 0
	OCCO [Ethylene Glycol]																		DevTox % Max Inhibition [1]: 6.931%; DevTox ACC [1]: >200 µM; HIT−CALL [1]: 0; Hit Call [1]: Negative; MAX_MEAN [1]: 6.33; MAX_MED [1]: 6.93; hit call designation (in words) [1]: false negative; maximum observed effect level class (% max inhibition) [1]: weak (key: high (80–100% max inhibition); moderate (20–80% max inhibition); weak (0–20% max inhibition)); Cell Count % Max Inhibition (RUES2-GLR cells): 7.044%; Cell Count ACC (RUES2-GLR cells): >200 µM; HIT−CALL [2]: 0; MAX_MEAN [2]: 15.9; MAX_MED [2]: 16.8; HIT−CALL [3]: 0; MAX_MEAN [3]: 0.895; MAX_MED [3]: 0.908; HIT−CALL [5]: 0; MAX_MEAN [5]: 1.02; MAX_MED [5]: 0.539
9.465	Cc1ccc(NC(=O)c2ccc(CN3CCN(C)CC3)cc2)cc1Nc1nccc(-c2cccnc2)n1 [Imatinib]	101	101	101	Positive		1	97.8	7.83	8.88	0					6.74	6.89	101	AC50 [5]: 14.1 µM; Emax [5]: 6.56%
12.6287	CC1=C(/C=C/C(C)=C/C=C/C(C)=C/CO)C(C)(C)CCC1 [Retinol]	94.5	94.3	94.5	Positive	13.0451	1	97.3	1.1	1.06	0				Non-Teratogen	23.5	25.3	117	hit call designation (in words) [1, 6]: false positive; AC50 [1, 23]: 33.9 µM; Emax [1, 8]: 80 to 100%; DevTox-GLR Endo ACC ([1]; 48 h exposure): 13.05 µM; DevTox-GLR Endo CC (RUES2-GLR cells; human, 48 h): 12.63 µM; Development Toxicant Classification [4]: Negative; DT Class. [4]: Neg; AC50 [5]: 46.8 µM; Emax [5]: 26%
	NC(=O)c1ccc(-c2nc(-c3ccc4c(c3)OCO4)c(-c3ccccn3)[nH]2)cc1 [SB431542]																		effect on SOX2 and SOX17 expression (in words) ([1]; 1 µM positive control, 48 h endoderm induction): loss of both SOX2 and SOX17
>200	O=C(O)c1cc(/N=N/c2ccc(S(=O)(=O)Nc3ccccn3)cc2)ccc1O [Sulfasalazine]	11.8	9.93	11.8	Negative	>200	0	8.86	8.6	8.79	0	0	0.92	0.948		1.38	0.57		
	CC(=O)CC(c1ccccc1)c1c(O)c2ccccc2oc1=O (stereo not drawn) [Warfarin]	26.9	26.8	26.9	Positive	93.3273	1	19.1	11.3	11.6	0	1	0.949	0.975		0.566	0.495	26.8	AC50 [1, 23]: 81.3 µM; DevTox-GLR Endo ACC ([1]; 48 h exposure): 93.33 µM; Cell Count ACC (RUES2-GLR cells; Table S2, 48 h exposure): 197.749 µM; DevTox-GLR Endo CC (RUES2-GLR cells; concentration at cell count cutoff, 48 h exposure): 197.75 µM
	D-Camphor				Negative	>200	0				0	1	0.906	0.891		0.902	0.451		DevTox % Max Inhibition [1, 17]: 9.33%; MAX_MEAN [1, 18]: 8.81 Percent Activity; MAX_MED [1, 19]: 9.33 Percent Activity; Cell Count % Max Inhibition (RUES2-GLR cells; [20]): 7.562%; MAX_MEAN [2, 21]: 7.36 Percent Activity; MAX_MED [2, 22]: 11.6 Percent Activity; ga (winning model) [3]: −7; tp (winning model) [3]: 0.81; HIT−CALL [5]: 0
